Test results reported in US8952024B2, “Herbicidal pyrimidone derivatives” (E I du Pont de Nemours and Company, priority 2009, dated 2015).

Columns and labels:
Format in all cases: in vivo
[1] = tested on: ducksalad (Heteranthera limosa); test: Test B flooded paddy test; conditions: for Plant response rating, Ducksalad: Flood (flooded paddy test), 125 g ai/ha, scale 0 to 100, 0 is no effect, 100 is complete control, 13 to 15 days; for Ducksalad plant response rating: Flood, 31 g ai/ha, scale 0 to 100 (0 no effect, 100 complete control)
Summary of the method: (§1)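 Flooded-pot test: water raised to 3 cm above soil when treating, compound put in the water, level unchanged thereafter. Plants were at 2 leaves. Readout after 13 to 15 days, visual, relative to controls; 0 signifies no effect and 100 complete control.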

[2] = tested on: barnyardgrass (Echinochloa crus-galli); test: Test B flooded paddy test; conditions: for Plant response rating, Barnyardgrass: Flood (flooded paddy test), 125 g ai/ha, scale 0 to 100, 0 is no effect, 100 is complete control, 13 to 15 days; for Barnyardgrass plant response rating: Flood, 31 g ai/ha, scale 0 to 100 (0 no effect, 100 complete control)
Summary of the method: as §1

[3] = tested on: rice (Oryza sativa); test: Test B flooded paddy test; conditions: for Plant response rating, Rice: Flood (flooded paddy test), 125 g ai/ha, scale 0 to 100, 0 is no effect, 100 is complete control, 13 to 15 days; for Rice plant response rating: Flood, 31 g ai/ha, scale 0 to 100 (0 no effect, 100 complete control)
Summary of the method: as §1

[4] = tested on: umbrella sedge (Cyperus difformis); test: Test B flooded paddy test; conditions: for Plant response rating, Sedge, Umbrella: Flood (flooded paddy test), 125 g ai/ha, scale 0 to 100, 0 is no effect, 100 is complete control, 13 to 15 days; for Sedge, Umbrella plant response rating: Flood, 31 g ai/ha, scale 0 to 100 (0 no effect, 100 complete control)
Summary of the method: as §1

[5] = tested on: giant foxtail (Setaria faberii); test: Test A pre-/postemergence plant response; conditions: for Foxtail, Giant plant response rating: visual injury, 0 to 100 scale (0 no effect, 100 complete control), approx. ten days
Summary of the method: (§2)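 Formulated test chemicals (non-phytotoxic solvent, surfactant) were sprayed onto soil right after planting and simultaneously onto young plants at one to two leaves, 2 to 10 cm tall. Plants stayed in the greenhouse about ten days; injury was then visually scored against untreated controls, from 0 (no effect) to 100 (complete control).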

[6] = tested on: corn (Zea mays); test: Test A pre-/postemergence plant response; conditions: for Corn plant response rating: visual injury, 0 to 100 scale (0 no effect, 100 complete control), approx. ten days
Summary of the method: as §2

[7] = tested on: wheat (Triticum aestivum); test: Test A pre-/postemergence plant response; conditions: for Wheat plant response rating: visual injury, 0 to 100 scale (0 no effect, 100 complete control), approx. ten days
Summary of the method: as §2

[8] = tested on: velvetleaf (Abutilon theophrasti); test: Test A pre-/postemergence plant response; conditions: for Velvetleaf plant response rating: visual injury, 0 to 100 scale (0 no effect, 100 complete control), approx. ten days
Summary of the method: as §2

[9] = tested on: barnyardgrass (Echinochloa crus-galli); test: Test A pre-/postemergence plant response; conditions: for Barnyardgrass plant response rating: visual injury, 0 to 100 scale (0 no effect, 100 complete control), approx. ten days
Summary of the method: as §2

[10] = tested on: large crabgrass (Digitaria sanguinalis); test: Test A pre-/postemergence plant response; conditions: for Crabgrass, Large plant response rating: visual injury, 0 to 100 scale (0 no effect, 100 complete control), approx. ten days
Summary of the method: as §2

[11] = tested on: morningglory (Ipomoea spp.); test: Test A pre-/postemergence plant response; conditions: for Morningglory plant response rating: visual injury, 0 to 100 scale (0 no effect, 100 complete control), approx. ten days
Summary of the method: as §2

[12] = tested on: pigweed (Amaranthus retroflexus); test: Test A pre-/postemergence plant response; conditions: for Pigweed plant response rating: visual injury, 0 to 100 scale (0 no effect, 100 complete control), approx. ten days
Summary of the method: as §2

[13] = Postemergence, 125 g ai/ha, 0 to 100 scale where 0 is no effect and 100 is complete control
[14] = Preemergence, 125 g ai/ha, 0 to 100 scale, 0 = no effect, 100 = complete control
[15] = Preemergence, 500 g ai/ha, 0 to 100 scale, 0 = no effect, 100 = complete control

SMILES: C#CCn1c(-c2cc(F)cc(F)c2)ncc(C(=O)C2=C(O)CCCC2=O)c1=O [Compound 170]
- Plant response rating, Ducksalad [1]: 45
- Ducksalad plant response rating [1]: 0
- Plant response rating, Barnyardgrass [2]: 30
- Barnyardgrass plant response rating [2]: 0
- Plant response rating, Rice [3]: 20
- Rice plant response rating [3]: 15
- Plant response rating, Sedge, Umbrella [4]: 35
- Sedge, Umbrella plant response rating [4]: 0
- Plant response rating, Foxtail, Giant [5, 13]: 50
- Foxtail, Giant plant response rating ([5]; Postemergence, 500 g ai/ha): 80
- Plant response rating, Foxtail, Giant [5, 14]: 10
- Plant response rating, Foxtail, Giant [5, 15]: 70
- Plant response rating, Corn [6, 13]: 20
- Corn plant response rating ([6]; Postemergence, 500 g ai/ha): 30
- Plant response rating, Corn [6, 14]: 0
- Plant response rating, Corn [6, 15]: 0
- Plant response rating, Wheat [7, 13]: 0
- Wheat plant response rating ([7]; Postemergence, 500 g ai/ha): 20
- Plant response rating, Wheat [7, 14]: 0
- Plant response rating, Wheat [7, 15]: 20
- Plant response rating, Velvetleaf [8, 13]: 100
- Velvetleaf plant response rating ([8]; Postemergence, 500 g ai/ha): 100
- Plant response rating, Velvetleaf [8, 14]: 10
- Plant response rating, Velvetleaf [8, 15]: 80
- Plant response rating, Barnyardgrass [9, 13]: 40
- Barnyardgrass plant response rating ([9]; Postemergence, 500 g ai/ha): 90
- Plant response rating, Barnyardgrass [9, 14]: 0
- Plant response rating, Barnyardgrass [9, 15]: 60
- Plant response rating, Crabgrass, Large [10, 13]: 60
- Crabgrass, Large plant response rating ([10]; Postemergence, 500 g ai/ha): 90
- Plant response rating, Crabgrass, Large [10, 14]: 10
- Plant response rating, Crabgrass, Large [10, 15]: 70
- Plant response rating, Morningglory [11, 13]: 100
- Morningglory plant response rating ([11]; Postemergence, 500 g ai/ha): 100
- Plant response rating, Morningglory [11, 14]: 0
- Plant response rating, Morningglory [11, 15]: 70
- Plant response rating, Pigweed [12, 13]: 80
- Pigweed plant response rating ([12]; Postemergence, 500 g ai/ha): 100
- Plant response rating, Pigweed [12, 14]: 30
- Plant response rating, Pigweed [12, 15]: 50

SMILES: COc1ccc(-n2c(-c3cccc(Br)c3)ncc(C(=O)C3=C(O)CCCC3=O)c2=O)cc1 [Compound 176]
- Plant response rating, Ducksalad [1]: 75
- Ducksalad plant response rating [1]: 40
- Plant response rating, Barnyardgrass [2]: 0
- Barnyardgrass plant response rating [2]: 0
- Plant response rating, Rice [3]: 20
- Rice plant response rating [3]: 15
- Plant response rating, Sedge, Umbrella [4]: 85
- Sedge, Umbrella plant response rating [4]: 70
- Plant response rating, Foxtail, Giant [5, 13]: 10
- Foxtail, Giant plant response rating ([5]; Postemergence, 500 g ai/ha): 70
- Plant response rating, Foxtail, Giant [5, 14]: 10
- Plant response rating, Foxtail, Giant [5, 15]: 50
- Plant response rating, Corn [6, 13]: 0
- Corn plant response rating ([6]; Postemergence, 500 g ai/ha): 10
- Plant response rating, Corn [6, 14]: 0
- Plant response rating, Corn [6, 15]: 0
- Plant response rating, Wheat [7, 13]: 0
- Wheat plant response rating ([7]; Postemergence, 500 g ai/ha): 0
- Plant response rating, Wheat [7, 14]: 0
- Plant response rating, Wheat [7, 15]: 0
- Plant response rating, Velvetleaf [8, 13]: 80
- Velvetleaf plant response rating ([8]; Postemergence, 500 g ai/ha): 90
- Plant response rating, Velvetleaf [8, 14]: 10
- Plant response rating, Velvetleaf [8, 15]: 50
- Plant response rating, Barnyardgrass [9, 13]: 50
- Barnyardgrass plant response rating ([9]; Postemergence, 500 g ai/ha): 90
- Plant response rating, Barnyardgrass [9, 14]: 10
- Plant response rating, Barnyardgrass [9, 15]: 30
- Plant response rating, Crabgrass, Large [10, 13]: 10
- Crabgrass, Large plant response rating ([10]; Postemergence, 500 g ai/ha): 60
- Plant response rating, Crabgrass, Large [10, 14]: 0
- Plant response rating, Crabgrass, Large [10, 15]: 20
- Plant response rating, Morningglory [11, 13]: 0
- Morningglory plant response rating ([11]; Postemergence, 500 g ai/ha): 50
- Plant response rating, Morningglory [11, 14]: 0
- Plant response rating, Morningglory [11, 15]: 20
- Plant response rating, Pigweed [12, 13]: 100
- Pigweed plant response rating ([12]; Postemergence, 500 g ai/ha): 100
- Plant response rating, Pigweed [12, 14]: 60
- Plant response rating, Pigweed [12, 15]: 100

SMILES: CCc1ccc(-n2c(-c3cccc(Br)c3)ncc(C(=O)C3=C(O)CCCC3=O)c2=O)cc1 [Compound 175]
- Plant response rating, Ducksalad [1]: 95
- Ducksalad plant response rating [1]: 75
- Plant response rating, Barnyardgrass [2]: 20
- Barnyardgrass plant response rating [2]: 0
- Plant response rating, Rice [3]: 0
- Rice plant response rating [3]: 0
- Plant response rating, Sedge, Umbrella [4]: 85
- Sedge, Umbrella plant response rating [4]: 75
- Plant response rating, Foxtail, Giant [5, 13]: 30
- Foxtail, Giant plant response rating ([5]; Postemergence, 500 g ai/ha): 80
- Plant response rating, Foxtail, Giant [5, 14]: 0
- Plant response rating, Foxtail, Giant [5, 15]: 50
- Plant response rating, Corn [6, 13]: 0
- Corn plant response rating ([6]; Postemergence, 500 g ai/ha): 20
- Plant response rating, Corn [6, 14]: 0
- Plant response rating, Corn [6, 15]: 0
- Plant response rating, Wheat [7, 13]: 0
- Wheat plant response rating ([7]; Postemergence, 500 g ai/ha): 0
- Plant response rating, Wheat [7, 14]: 0
- Plant response rating, Wheat [7, 15]: 0
- Plant response rating, Velvetleaf [8, 13]: 100
- Velvetleaf plant response rating ([8]; Postemergence, 500 g ai/ha): 100
- Plant response rating, Velvetleaf [8, 14]: 40
- Plant response rating, Velvetleaf [8, 15]: 50
- Plant response rating, Barnyardgrass [9, 13]: 50
- Barnyardgrass plant response rating ([9]; Postemergence, 500 g ai/ha): 100
- Plant response rating, Barnyardgrass [9, 14]: 0
- Plant response rating, Barnyardgrass [9, 15]: 30
- Plant response rating, Crabgrass, Large [10, 13]: 40
- Crabgrass, Large plant response rating ([10]; Postemergence, 500 g ai/ha): 80
- Plant response rating, Crabgrass, Large [10, 14]: 30
- Plant response rating, Crabgrass, Large [10, 15]: 50
- Plant response rating, Morningglory [11, 13]: 10
- Morningglory plant response rating ([11]; Postemergence, 500 g ai/ha): 80
- Plant response rating, Morningglory [11, 14]: 0
- Plant response rating, Morningglory [11, 15]: 10
- Plant response rating, Pigweed [12, 13]: 100
- Pigweed plant response rating ([12]; Postemergence, 500 g ai/ha): 100
- Plant response rating, Pigweed [12, 14]: 60
- Plant response rating, Pigweed [12, 15]: 100
